In ChEMBL document CHEMBL1177739, “Fast-forwarding hit to lead: aurora and epidermal growth factor receptor kinase inhibitor lead identification” (J Med Chem, 2010):
pIC50: −log10 of the molar value.

Columns and labels:
Aurora kinase A = biological target: T1, Aurora kinase A (Homo sapiens, UniProt O14965)
T1 sequence (O14965 whole entry): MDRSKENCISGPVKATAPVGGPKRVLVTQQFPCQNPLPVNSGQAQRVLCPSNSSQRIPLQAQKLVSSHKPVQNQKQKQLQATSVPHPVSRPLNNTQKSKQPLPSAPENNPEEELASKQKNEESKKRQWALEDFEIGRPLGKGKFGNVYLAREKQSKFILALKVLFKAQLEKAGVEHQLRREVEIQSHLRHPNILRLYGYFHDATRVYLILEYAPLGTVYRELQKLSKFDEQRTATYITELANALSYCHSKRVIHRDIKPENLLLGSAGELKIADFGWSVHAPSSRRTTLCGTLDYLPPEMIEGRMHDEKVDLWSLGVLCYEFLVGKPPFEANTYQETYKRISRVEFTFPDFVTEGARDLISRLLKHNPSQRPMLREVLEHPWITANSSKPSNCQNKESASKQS

HCT-116 = experiment: Cytotoxicity against human HCT116 cells by MTS assay; assay type: functional, cell-based
[1] = biological target: T2, Aurora kinase A (Homo sapiens) (UniProt O14965); experiment: Inhibition of Aurora A at 10 uM
T2 sequence (whole entry): T1 sequence (O14965 whole entry)

[2] = biological target: T3, Epidermal growth factor receptor (Homo sapiens, UniProt P00533)
T3 sequence (P00533 whole entry): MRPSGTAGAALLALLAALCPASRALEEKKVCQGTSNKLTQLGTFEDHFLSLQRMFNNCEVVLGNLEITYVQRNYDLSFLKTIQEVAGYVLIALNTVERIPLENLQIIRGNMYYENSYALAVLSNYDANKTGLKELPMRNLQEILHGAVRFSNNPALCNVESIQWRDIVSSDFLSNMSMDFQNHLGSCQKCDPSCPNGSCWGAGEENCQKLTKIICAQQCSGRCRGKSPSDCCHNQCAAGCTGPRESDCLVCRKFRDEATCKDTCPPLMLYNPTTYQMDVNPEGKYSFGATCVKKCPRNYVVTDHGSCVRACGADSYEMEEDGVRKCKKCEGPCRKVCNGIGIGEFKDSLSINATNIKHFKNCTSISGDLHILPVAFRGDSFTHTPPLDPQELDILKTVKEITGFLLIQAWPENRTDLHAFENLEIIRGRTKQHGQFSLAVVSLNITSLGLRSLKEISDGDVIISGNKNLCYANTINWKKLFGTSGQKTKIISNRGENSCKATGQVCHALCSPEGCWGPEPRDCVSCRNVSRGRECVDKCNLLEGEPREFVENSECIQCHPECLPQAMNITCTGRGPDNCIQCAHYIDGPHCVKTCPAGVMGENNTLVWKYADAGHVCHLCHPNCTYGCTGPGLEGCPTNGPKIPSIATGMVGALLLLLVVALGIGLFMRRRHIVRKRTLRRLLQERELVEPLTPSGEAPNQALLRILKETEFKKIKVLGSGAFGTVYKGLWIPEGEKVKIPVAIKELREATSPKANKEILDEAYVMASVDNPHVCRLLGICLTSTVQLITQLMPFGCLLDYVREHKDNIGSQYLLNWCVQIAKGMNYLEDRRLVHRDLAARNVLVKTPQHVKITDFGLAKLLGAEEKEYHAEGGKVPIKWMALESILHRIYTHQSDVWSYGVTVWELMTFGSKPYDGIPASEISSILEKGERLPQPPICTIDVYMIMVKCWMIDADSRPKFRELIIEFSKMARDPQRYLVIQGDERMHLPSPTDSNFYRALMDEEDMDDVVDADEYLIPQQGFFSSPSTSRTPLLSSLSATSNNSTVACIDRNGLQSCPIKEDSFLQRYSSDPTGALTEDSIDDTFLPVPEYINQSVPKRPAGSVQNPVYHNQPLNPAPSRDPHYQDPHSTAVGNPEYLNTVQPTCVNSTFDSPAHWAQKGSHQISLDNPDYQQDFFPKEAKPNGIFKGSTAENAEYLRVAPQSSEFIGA
Description: Inhibition of GST-tagged EGFR expressed in Escherichia coli

cells = details: Homo sapiens, HCC827, 96 h
Description: Antiproliferative activity against human HCC827 cells after 96 hrs by MTS assay

[3] = biological target: Epidermal growth factor receptor (Homo sapiens, UniProt P00533, L858R/T790M)
Sequence of Epidermal growth factor receptor (Homo sapiens, UniProt P00533, L858R/T790M) (P00533 25-1210 T790M/L858R limits assumed): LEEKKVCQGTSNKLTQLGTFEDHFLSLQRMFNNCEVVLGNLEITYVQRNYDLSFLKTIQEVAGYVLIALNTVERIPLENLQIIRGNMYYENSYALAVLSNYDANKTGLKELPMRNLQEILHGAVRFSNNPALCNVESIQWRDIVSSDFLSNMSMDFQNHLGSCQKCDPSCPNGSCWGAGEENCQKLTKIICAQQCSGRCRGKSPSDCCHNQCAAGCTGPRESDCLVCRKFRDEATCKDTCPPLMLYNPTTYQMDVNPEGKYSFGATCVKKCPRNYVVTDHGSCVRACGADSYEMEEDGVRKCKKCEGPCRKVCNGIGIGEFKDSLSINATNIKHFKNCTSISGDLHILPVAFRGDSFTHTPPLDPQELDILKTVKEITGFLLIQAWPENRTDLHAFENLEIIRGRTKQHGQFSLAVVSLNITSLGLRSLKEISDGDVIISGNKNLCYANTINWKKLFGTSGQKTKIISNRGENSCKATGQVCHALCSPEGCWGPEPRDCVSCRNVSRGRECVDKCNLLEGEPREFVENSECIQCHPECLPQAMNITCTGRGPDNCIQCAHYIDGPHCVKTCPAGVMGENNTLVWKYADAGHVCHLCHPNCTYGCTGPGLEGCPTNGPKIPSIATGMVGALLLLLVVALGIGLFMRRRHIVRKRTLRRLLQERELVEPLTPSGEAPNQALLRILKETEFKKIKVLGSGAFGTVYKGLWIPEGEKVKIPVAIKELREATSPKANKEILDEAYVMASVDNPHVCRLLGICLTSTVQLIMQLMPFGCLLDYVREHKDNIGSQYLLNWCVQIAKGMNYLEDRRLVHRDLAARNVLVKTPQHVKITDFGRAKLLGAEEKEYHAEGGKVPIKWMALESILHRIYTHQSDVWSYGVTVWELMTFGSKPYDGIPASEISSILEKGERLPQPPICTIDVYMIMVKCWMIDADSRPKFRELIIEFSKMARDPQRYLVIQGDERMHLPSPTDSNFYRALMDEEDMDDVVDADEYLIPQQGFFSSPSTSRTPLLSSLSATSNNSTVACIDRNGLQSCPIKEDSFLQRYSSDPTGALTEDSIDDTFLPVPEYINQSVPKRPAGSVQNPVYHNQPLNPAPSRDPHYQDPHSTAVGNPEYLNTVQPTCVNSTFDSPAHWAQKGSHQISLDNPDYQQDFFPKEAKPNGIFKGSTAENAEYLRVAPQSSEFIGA

[4] = biological target: T3, Epidermal growth factor receptor; details: 20 uM
Description: Inhibition of GST-tagged EGFR expressed in Escherichia coli at 20 uM

| SMILES | pIC50 (Aurora kinase A) | pIC50 (HCT-116) | further results |
| --- | --- | --- | --- |
| COC1C=CC(CNc2ncnc3oc(-c4ccccc4)c(-c4ccccc4)c23)(OC)O1 (configuration not stated) | 6.08 |  |  |
| c1ccc(-c2oc3ncnc(NCCCn4ccnc4)c3c2-c2ccccc2)cc1 | 5.48 |  | inhibition [1]: 73.8% |
| OC1CCN(c2ncnc3oc(-c4ccccc4)c(-c4ccccc4)c23)CC1 | 6.09 |  | inhibition [1]: 85.8% |
| C=CC(=O)Nc1ccc(-c2c(-c3ccccc3)oc3ncnc(N[C@H](CO)c4ccccc4)c23)cc1 |  |  | pIC50 [2]: 7.09; pIC50 (cells): 6.40; pIC50 [3]: < 5.00 |
| O=C(Nc1ccccc1)Nc1ccc(CCNc2ncnc3oc(-c4ccccc4)c(-c4ccccc4)c23)cc1 |  | 6.40 |  |
| c1ccc(-c2oc3ncnc(NCCN4CCOCC4)c3c2-c2ccccc2)cc1 | 5.75 |  | inhibition [1]: 81.7% |
| OC[C@@H](Nc1ncnc2oc(-c3ccccc3)c(-c3ccccc3)c12)c1ccccc1 |  |  | pIC50 [2]: 6.65; pIC50 (cells): 6.29; inhibition [4]: > 80%; pIC50 [3]: < 5.00 |
| CCOC(=O)CCNc1ncnc2oc(-c3ccccc3)c(-c3ccccc3)c12 | 6.10 | < 5.00 |  |
| C[C@@H](O)CNc1ncnc2oc(-c3ccccc3)c(-c3ccccc3)c12 | 6.01 |  |  |
| C[C@@H](CO)Nc1ncnc2oc(-c3ccccc3)c(-c3ccccc3)c12 | 6.10 |  |  |
| Nc1ccc(CNc2ncnc3oc(-c4ccccc4)c(-c4ccccc4)c23)cc1 | 6.02 |  |  |
| O=S(=O)(Nc1ccc(CCNc2ncnc3oc(-c4ccccc4)c(-c4ccccc4)c23)cc1)c1ccccc1 | 5.23 | < 5.00 |  |
| c1ccc(-c2oc3ncnc(NCCc4c[nH]cn4)c3c2-c2ccccc2)cc1 |  |  | inhibition [1]: 91.4% |
| OCCOCCNc1ncnc2oc(-c3ccccc3)c(-c3ccccc3)c12 | 6.12 |  |  |
| O=C(CCNc1ncnc2oc(-c3ccccc3)c(-c3ccccc3)c12)Nc1ccccc1 | < 5.00 | < 5.00 |  |
| Cc1cc(Nc2cc(N3CCN(C)CC3)nc(Sc3ccc(NC(=O)C4CC4)cc3)n2)n[nH]1 [TOZASERTIB] |  | 6.92 |  |

Continued by rising pIC50 (Aurora kinase A), values first:

| pIC50 (Aurora kinase A) | SMILES | pIC50 (HCT-116) | further results |
| --- | --- | --- | --- |
| 6.19 | Oc1ccc(CCNc2ncnc3oc(-c4ccccc4)c(-c4ccccc4)c23)cc1 |  |  |
| 6.19 | Nc1ccc(CCNc2ncnc3oc(-c4ccccc4)c(-c4ccccc4)c23)cc1 | < 5.00 |  |
| 6.27 | c1ccc(-c2oc3ncnc(NCCc4ccccn4)c3c2-c2ccccc2)cc1 |  |  |
| 6.48 | CC1CN(c2ncnc3oc(-c4ccccc4)c(-c4ccccc4)c23)CC(C)N1 (configuration not stated) |  |  |
| 6.51 | OCCNc1ncnc2oc(-c3ccccc3)c(-c3ccccc3)c12 |  | inhibition [1]: 98.2% |
| 6.52 | O=C(Nc1ccc(CCNc2ncnc3oc(-c4ccccc4)c(-c4ccccc4)c23)cc1)c1ccccc1 | < 5.00 |  |
| 6.53 | c1ccc(-c2oc3ncnc(NCCc4cnc[nH]4)c3c2-c2ccccc2)cc1 |  |  |
